Legend:
[1] = tested on: Cabbage Looper (Trichoplusia ni); assay: Bioassay on Cabbage Looper (CL), 128-well diet tray assay; format: in vivo; conditions: 168 h, 50 μg/cm^2 on artificial diet, second instar larvae, five to seven days, read-out: CL % Control (or Mortality) rating
How it was run: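 Activity is mean percent mortality over eight wells of second-instar larvae exposed to diet treated at 50 μg/cm^2 for 5–7 days at 25° C.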

[2] = tested on: Beet Armyworm (Spodoptera exigua); assay: Bioassay on Beet Armyworm (BAW), 128-well diet tray assay; format: in vivo; conditions: for mortality at 50 µg/cm2: Spodoptera exigua, 168 h, 50 μg/cm^2 on artificial diet, second instar larvae, five to seven days, read-out: BAW % Control (or Mortality) rating

Compound	mortality at 50 µg/cm2 [1] [%]	mortality at 50 µg/cm2 [2] [%]	BAW (Table CD-1) ([2]; 0.05 μg/cm^2)	BAW (Table CD-1) ([2]; 5.0 μg/cm^2)	BAW (Table CD-1) ([2]; 50 μg/cm^2)
CN(NC(=O)c1ccc(/C(F)=C/C(c2ccc(Cl)c(OC(F)(F)F)c2)C(F)(F)F)cc1C(F)(F)F)c1ccccn1 (centres unmarked) [F60, (Z)-4-(3-(4-Chloro-3-(trifluoromethoxy)phenyl)-1,4,4,4-tetrafluorobut-1-en-1-yl)-N′-methyl-N′-(pyridin-2-yl)-2-(trifluoromethyl)benzohydrazide]	50 to 100	50 to 100	–	–	–
Cc1cc(/C(F)=C/C(c2cc(Cl)c(Cl)c(Cl)c2)C(F)(F)F)ccc1C(=O)NNc1ncccn1 (centres unmarked) [F37, (Z)-2-Methyl-N′-(pyrimidin-2-yl)-4-(1,4,4,4-tetrafluoro-3-(3,4,5-trichlorophenyl)but-1-en-1-yl)benzohydrazide]	50 to 100	50 to 100	0	100	100
CN(NC(=O)c1ccc(/C(F)=C/C(c2ccc(OC(F)(F)F)c(Cl)c2)C(F)(F)F)cc1C(F)(F)F)c1ccccn1 (centres unmarked) [F107, (Z)-4-(3-(3-Chloro-4-(trifluoromethoxy)phenyl)-1,4,4,4-tetrafluorobut-1-en-1-yl)-N′-methyl-N′-(pyridin-2-yl)-2-(trifluoromethyl)benzohydrazide]	50 to 100	50 to 100	–	–	–
O=C(NNc1ncccn1)c1ccc(/C(F)=C/C(c2ccc(Cl)c(OC(F)(F)F)c2)C(F)(F)F)cc1C(F)(F)F (centres unmarked) [F42, (Z)-4-(3-(4-Chloro-3-(trifluoromethoxy)phenyl)-1,4,4,4-tetrafluorobut-1-en-1-yl)-N′-(pyrimidin-2-yl)-2-(trifluoromethyl)benzohydrazide]	50 to 100	50 to 100	–	–	–
O=C(NNc1ncccn1)c1ccc(/C(F)=C/C(c2cc(Cl)cc(C(F)(F)F)c2)C(F)(F)F)cc1C(F)(F)F (centres unmarked) [F77, (Z)-4-(3-(3-Chloro-5-(trifluoromethyl)phenyl)-1,4,4,4-tetrafluorobut-1-en-1-yl)-N′-(pyrimidin-2-yl)-2-(trifluoromethyl)benzohydrazide]	50 to 100	50 to 100	–	–	–
O=C(NNc1ccnnc1)c1ccc(/C(F)=C/C(c2cc(Cl)c(Cl)c(Cl)c2)C(F)(F)F)cc1C(F)(F)F (centres unmarked) [F33, (Z)—N′-(Pyridazin-4-yl)-4-(1,4,4,4-tetrafluoro-3-(3,4,5-trichlorophenyl)but-1-en-1-yl)-2-(trifluoromethyl)benzohydrazide]	50 to 100	50 to 100	–	–	–
CN(NC(=O)c1ccc(/C(F)=C/C(c2ccc(F)c(C(F)(F)F)c2)C(F)(F)F)cc1C(F)(F)F)c1ncccn1 (centres unmarked) [F113, (Z)—N′-Methyl-N′-(pyrimidin-2-yl)-4-(1,4,4,4-tetrafluoro-3-(4-fluoro-3-(trifluoromethyl)phenyl)but-1-en-1-yl)-2-(trifluoromethyl)benzohydrazide]	50 to 100	50 to 100	–	–	–
O=C(NNc1ccccc1[N+](=O)[O-])c1ccc(/C(F)=C/C(c2cc(Cl)c(Cl)c(Cl)c2)C(F)(F)F)cc1C(F)(F)F (centres unmarked) [F118, (Z)—N′-(2-nitrophenyl)-4-(1,4,4,4-tetrafluoro-3-(3,4,5-trichlorophenyl)but-1-en-1-yl)-2-(trifluoromethyl)benzohydrazide]	50 to 100	50 to 100	–	–	–
O=C(NNc1ncccc1[N+](=O)[O-])c1ccc(/C(F)=C/C(c2cc(Cl)c(Cl)c(Cl)c2)C(F)(F)F)cc1C(F)(F)F (centres unmarked) [F132, (Z)—N′-(3-Nitropyridin-2-yl)-4-(1,4,4,4-tetrafluoro-3-(3,4,5-trichlorophenyl)but-1-en-1-yl)-2-(trifluoromethyl)benzohydrazide]	50 to 100	50 to 100	–	–	–
O=C(NNc1ncccn1)c1ccc(/C(F)=C/C(c2ccc(OC(F)(F)F)c(Cl)c2)C(F)(F)F)cc1C(F)(F)F (centres unmarked) [F50, (Z)-4-(3-(3-Chloro-4-(trifluoromethoxy)phenyl)-1,4,4,4-tetrafluorobut-1-en-1-yl)-N′-(pyrimidin-2-yl)-2-(trifluoromethyl)benzohydrazide]	50 to 100	50 to 100	–	–	–

Reference: patent US10638756B2, “Molecules having pesticidal utility, and intermediates, compositions, and processes, related thereto” (Dow AgroSciences LLC, priority 2017, dated 2020)
